Data from patent US5962456A, “N-acylpiperazine derivative, anti-ulcer drug, and antibacterial drug” (Shiseido Co., Ltd., priority 1996, dated 1999).

Legend:
mice = conditions: mouse, in vivo
Experimental: AT: Single Dose Toxicity Pretest
Male Slc:ICR mice (5-week-old) were used. Each group has 3 to 5 mice and each mouse was fasted, but allowed free access to water, for 4 to 5 hours from 9 a.m. in the test day. Then, 2,000 mg/10 ml/kg of the sample compound dissolved or suspended in an aqueous solution of 0.5% sodium carboxymethyl cellulose was orally administered thereto. To a control, only the vehicle was administered. […] The body weight was measured before and after the fasting as well as at the same time everyday. The dead animals were immediately subjected to autopsy and their organs were observed microscopically. Also, the living animals were sacrificed with ether or carbon dioxide one week after the administration and then their organs were observed microscopically.
The toxicity at the single dose of 2,000 mg/kg of the sample compound was expressed as being classified into 5 levels.
5: Mortality rate is 0%; no toxicity is found at all both in behavior and organs.
4: Mortality rate is 0%; while no toxicity is found in organs, slight toxicity is observed in behavior and body weight increase.
3: While there is a dead animal (though not all the animals are dead), no toxicity is found in organs.
2: Regardless of whether there is a dead animal or not, toxicity is found in organs.
1: All the animals are dead.

[1] = MTT: Cell Damaging and Protecting Effect Test; assay type: cell-based, rabbit (male Japanese White); conditions: rabbit, gastric corpus mucosa cells, final concentration 10^-4 M, smaller value is better, read-out: MTT cell damaging rate
Description: (§1) MTT: Cell Damaging and Protecting Effect Test
(§2) It is confirmed that there is no toxicity in cell level. Those having a toxicity in cell level are inappropriate as an anti-ulcer drug.
(§3) A male Japanese White rabbit (2.5 to 3 kg) was anesthetized to death by Nembutal™ and, immediately thereafter, its stomach was removed. The greater curvature of the stomach was incised so as to remove the stomach contents therefrom. After the mucosal surface was washed with HBSS (Hanks' Balanced Salt Solution), the stomach in ice-cooled HBSS was transferred to a laboratory. Then, after the pyloric antrum was removed, the gastric corpus mucosa was separated by a spatula and then minced into 2 to 3 mm^3 pieces in BME (Basal Medium Eagle). Thereafter, these pieces were shaken at 120 to 130 cycles/minute for 15 minutes at 37° C. in BME 60 ml containing 280 U/ml of dispase and 30 to 50 U/ml of collagenase. Here, the concentration of collagenase was appropriately changed for each lot in view of the state of cells. The pieces were washed twice with EBSS (Earle's Balanced Salt Solution) containing 1 mM of EDTA and then shaken in MEM (Minimum Essential Medium) containing 1 mM of EDTA at 37° C. for 5 minutes. Subsequently, they were shaken in the dispase and collagenase having the same concentrations as those mentioned above for 15 minutes so as to remove the supernatant and then further shaken at 37° C. for 50 to 60 minutes at 120 to 130 cycles/minute. Then, after being washed twice with HBSS, Ham F12 containing 2% of Ultrocer G™ was used to attain the concentration of 1×10^6 cells/ml. Thus formed suspension was dispensed in each well of a 96-well plate by 200 μl. The plate was incubated in the atmosphere composed of 5% CO2 and 95% air at 37° C. for three days so as to attain a confluent state and then subjected to MTT assay.
(§4) The sample compound was dissolved in DMSO so as to attain a concentration of 10^-2 M and then diluted with HBSS containing 2% of Ultrocer G™ so as to attain a final concentration of 10^-4 M. To each group, which 8 wells were used for, 10 μl of MTT reagent was added immediately after 100 μl of the medium in each well was exchanged for same volume of the resulting solution of the sample compound. After being incubated in an atmosphere composed of 5% CO2 and 95% air at 37° C. for 4 hours, thus formed solution was centrifuged and then its supernatant was discarded. Subsequently, 100 μl of 100% ethanol was added to the residue so as to dissolve MTT formazan. Then, the absorbance (OD: 570 to 630) was measured by a microplate reader. This method utilizes a phenomenon in which MTT is changed to MTT formazan only by mitochondria of living cells so as to change color.
(§5) The cell damaging or cell protecting effect of the sample compound at the final concentration of 10^-4 M was expressed as cell damaging rate (%) as follows:
(§6) cell damaging rate (%)=(1-(absorbance in sample group/absorbance in control group))×100
(§7) Accordingly, the smaller rate value is better in the cell damage.

[2] = test system: isolated gastric fundic gland; assay: CAP: Acid Secretion Inhibition Test In Vitro ([14C]-aminopyrine uptake); assay type: cell-based, rabbit (male Japanese White); conditions: final concentration 10^-5 M, histamine 10^-5 M, rabbit gastric fundic glands; for inhibition at 10 µM: Oryctolagus cuniculus, read-out: CAP acid secretion inhibitory rate
Experimental: CAP: Acid Secretion Inhibition Test In Vitro
The acid secretion inhibitory activity in a cell level is studied. It can also be used for studying the mechanism of the effect. […]
ii-a) Preparation of Isolated Gastric Fundus Gland Suspension
First, an isolated gastric fundic gland sample was prepared. Namely, a male Japanese White rabbit (2.5 to 3 kg) was anesthetized to death with Nembutal™ and then the abdomen was incised. Immediately thereafter, the stomach was removed and, after its pyloric and cardiac antrum were severed, incised along its greater curvature into two sheets. The gastric contents adhering to the mucosal surface was washed out with ice-cooled PBS (-) and then carefully washed therein. The gastric wall was spread on a cork board with its mucosal surface facing up and the feed and mucus thereon were completely removed with sterile gauze. The mucosa was separated therefrom by a spatula and then collected in ice-cooled PBS (-). After being washed twice with PBS (-), the mucosa was minced into 2-3 mm^3 pieces by scissors. These pieces were further washed twice with a nutrient solution. […] Into 70 ml of the nutrient solution containing 1 mg/ml of collagenase, minced mucosal pieces were dispersed and intensely stirred in a conical flask with a stirrer at 37° C. for 40 to 60 minutes. During this period, 100% O2 was sprayed on the nutrient solution surface and the pH was appropriately measured such that it was immediately adjusted to pH 7.4, when the value was therebelow, with a base. The nutrient solution was added to the reaction solution so as to attain the total amount of about 200 ml. After being filtered through a mesh, the suspension was divisionally introduced into 50 ml centrifuge tubes and left for 15 minutes such that gastric fundic gland was deposited. The supernatant was repeatedly removed by an aspirator, dispersed in the nutrient solution, and then left such that the gastric fundic gland was washed three times. At this time, without using a pipette, the suspension was alternately introduced into two centrifuge tubes so as to effect dispersion. The number of cells was counted under microscope and adjusted to 1.6×10^6 cells/ml. […]
ii-b) [^14 C]-aminopyrine Uptake Test
Then, [^14 C]-aminopyrine uptake test was performed. After an Eppendorf tube was weighed, 10 μl (final concentration: 10^-5 M) of histamine dissolved in the above-mentioned nutrient solution, 10 μl (final concentration: 10^-5 M) of the test compound dissolved in DMSO, and 10 μl (final concentration: 0.05 μCi/ml) of [^14 C]-aminopyrine diluted with the nutrient solution were introduced therein and then 970 μl of the isolated gastric fundic gland suspension prepared above was added thereto. […] After being centrifuged for 30 minutes, 200 μl of its supernatant was collected into a mini-vial, while the rest was removed by an aspirator. The gland pellet was completely dried as the tube with its lid being opened was kept for one night in a drying oven at 80° C. and then the lid was closed and the weight was determined at room temperature. Then 100 μl of 1N KOH was added thereto and the tube with its lid being closed was treated at 60° C. for 1 to 2 hours so as to dissolve the pellet. Then, the contents thereof were transferred to a mini-vial. Into the mini-vial containing the supernatant or gland pellet, 4 ml of Atomlite™ was added and then the radioactivity was measured by a liquid scintillation counter. Here, after the radioactivity of the gland pellet was corrected by using a sample in which 20 mM of NaSCN was added so as to cancel the hydrogen ion concentration gradient, the integration ratio of aminopyrine specifically trapped by the gland pellet was calculated. This experiment was performed in duplicate. […]
ii-c) Calculation of the Accumulation Rate of Aminopyrine
Here, its principle will be briefly explained. In the isolated gastric fundic gland, acid is accumulated in a space between its secretory tubule and intraglandular cavity.

[3] = test system: gastric corpus mucosa cells; assay: MTT: Cell Damaging and Protecting Effect Test; assay type: cell-based, rabbit (male Japanese White); conditions: final concentration 10^-4 M, 4 hours; smaller value is better; 100 µM
Description: as §1, §2, §3, §4, §5, §6, §7

Helicobacter pyroli = assay: AHP: Antibacterial Activity Test Against Helicobacter pyroli (agar dilution); assay type: cell-based, HP NCTC 11637; conditions: for AHP antibacterial activity, colony number relative to control plate: MIC 100 μg/ml or more, plate with 250 mM solution of the sample compound; for MIC: Helicobacter, NCTC11637, 168 h, HP NCTC 11637, agar dilution, 7 days, read-out: AHP minimum inhibitory concentration (MIC)
Experimental: AHP: Antibacterial Activity Test Against Helicobacter pyroli i) Meaning The minimum inhibitory concentration (MIC) against Helicobacter pyroli (microaerophilic gram-negative bacterium which is supposed to deeply involve in pathogenesis, relapse, and recrudescence of ulcer, referred to as "HP" in the following) is measured so as to find out compounds which have antimicrobial activity against Helicobacter pyroli. ii) Method MICs were determined by the agar dilution method. The stock culture (-80° C.) of HP NCTC 11637 was thawed and cultured on tripticase soy agar supplemented with 5% sheep blood at 37° C. in an atmosphere of 5% O2, 10% CO2, and 85% N2. Grown colonies were transferred to the same plate and precultured for 3 days under the same condition. […] 10 μl of the bacterial suspension for inoculation (about 10^3 cfu) was inoculated on this plate and cultured for 7 days under the same condition as that of preculture. […] As the result of the comparison of these plates, when the number of the colony on the plate containing the sample compound was less than 90% with respect to that on the control plate, it was represented by "+". Contrary to this, when there was 90% or more, it was represented by "-".

stress ulcer = assay: WIS: Restraint and Water Immersion Stress-Induced Ulcer Inhibition Test; assay type: in vivo, rat (male Crj:SD or Slc:SD); conditions: 100 mg/kg oral, rats, 7 hours restraint and water immersion (21° C.)
Experimental: WIS: Restraint and Water Immersion Stress-Induced Ulcer Inhibition Test
The degree of inhibition of the stress ulcer formation is tested.
Male Crj:SD or Slc:SD rats (6 to 7-week-old) were fasted overnight, but allowed free access to water. Each group has 5 to 8 of these rats. […] To a control group, the vehicle was administered. 10 minutes later, the rats were placed in a stress cage and immersed to the level of xipfoid process in a water bath (21° C.) for 7 hours. At the end of the stress, the rats were sacrificed by inhalation of ether or carbon dioxide. Then, the stomach of each was removed, inflated by injecting 10 ml of 5% formalin neutral buffer solution, and immersed in 1% formalin neutral buffer solution for 30 minutes or more to be fixed. The stomach was incised along the greater curvature and then the length of each erosion in the glandular portion was determined under dissecting microscope. The sum of the length of erosions per stomach was defined as ulcer index (UI).
The effect obtained when 100 mg/kg of the sample compound had been administered was expressed as ulcer formation inhibitory rate (%) as follows:
ulcer formation inhibitory rate (%)=(1-(UI in sample group/UI in control group))×100

Row | SMILES | cytotoxicity at 4 h, 100 µM [1] [%] | inhibition at 10 µM [2] [%] | AHP antibacterial activity, colony number relative to control plate (Helicobacter pyroli) | also measured
1 | CC(C)Cc1cc(C(=O)N2CCN(c3ccccn3)CC2)ccc1OCc1ccc(F)cc1 [Example 10, 1-[4-(4-fluorobenzyloxy)-3-isobutyl]benzoyl-4-(2-pyridyl) piperazine] | -34 | 96 | – | AT single dose toxicity level (mice): 5
2 | CC(C)=CCC/C(C)=C/COc1ccc(C(=O)N2CCN(CCNC(=O)c3ccc4c(c3)OCO4)CC2)cc1CC(C)C [Example 2, 1-(4-geranyloxy-3-isobutyl)benzoyl-4-[2-(piperonyloylamino)ethyl]piperazin] | – | – | – | MTT cell damaging rate [3]: 22%; CAP acid secretion inhibitory rate [2]: 99.4%
3 | COc1cc(C(=O)N2CCN(Cc3ccccc3)CC2)cc(OC)c1OC/C=C(\C)CCC=C(C)C [Example 5, 1-benzyl-4-(3,5-dimethoxy-4-geranyloxy)benzoylpiperazine] | -50 | 99.2 | + (the number of the colony on the plate containing the sample compound was less than 90% with respect to that on the control plate) | –
4 | CC(C)Cc1ccc(C(=O)N2CCN(C(c3ccccc3)c3ccccc3)CC2)cc1O [Example 12, 1-diphenylmethyl-4-(3-hydroxy-4-isobutyl)benzoylpiperazine] | -12 | 41.9 | + (the number of the colony on the plate containing the sample compound was less than 90% with respect to that on the control plate) | –
5 | CC(C)Cc1cccc(C(=O)N2CCN(Cc3ccc4c(c3)OCO4)CC2)c1O [Example 11] | 5 | 93.1 | – | MIC (Helicobacter pyroli): < 3.13 µg/mL
6 | CC(C)Cc1cc(C(=O)N2CCN(Cc3ccccc3)CC2)ccc1OCc1ccccc1 [Example 9, 1-(4-benzyloxy-3-isobutyl)benzoyl-4-benzylpiperazine] | -32 | 94.6 | + (the number of the colony on the plate containing the sample compound was less than 90% with respect to that on the control plate) | –
7 | CC(C)=CCC/C(C)=C/COc1ccc(C(=O)N2CCN(Cc3ccc4c(c3)OCO4)CC2)cc1 [Example 4, 1-(4-geranyloxy)benzoyl-4-piperonylpiperazine] | -29 | – | + (the number of the colony on the plate containing the sample compound was less than 90% with respect to that on the control plate) | WIS ulcer formation inhibitory rate (stress ulcer): 43%
8 | CC(C)=CCC/C(C)=C/COc1ccc(C(=O)N2CCN(CCOC(=O)c3ccncc3)CC2)cc1 [Example 3, 1-(4-geranyloxy)benzoyl-4-(2-isonicotinoyloxyethyl)piperazine] | -24 | 101 | – | –
9 | CC(C)Cc1cc(C(=O)N2CCN(C(=O)NC(C)C)CC2)ccc1OCc1ccc(F)cc1 [Example 8, 1-[4-(4-fluorobenzyloxy)-3-isobutyl]benzoyl-4-(N-isopropylcarbamoyl)piperazine] | -93 | 36.9 | – | MIC (Helicobacter pyroli): < 3.13 µg/mL
10 | CC(C)=CCOc1cc(C(=O)N2CCN(Cc3ccccc3)CC2)cc(OCC=C(C)C)c1OCC=C(C)C [Example 6, 1-benzyl-4-(3,4,5-triprenyloxy)benzoylpiperazine] | -16 | 99.5 | – | –
11 | COc1cc(C(=O)N2CCN(Cc3ccccc3)CC2)cc(OC/C=C(\C)CCC=C(C)C)c1OC [Example 7, 1-benzyl-4-(3,4-dimethoxy-5-geranyloxy)benzoylpiperazine] | -44 | 99.6 | – | –
